Experimental data taken from ChEMBL document CHEMBL1142737, “Organometallic anticancer agents: cellular uptake and cytotoxicity studies on thiol derivatives of the antitumor agent molybdocene dichloride” (J Med Chem, 2005).

Assays:
[1] = Ability to inhibit the growth of ovarian cell line 2008; type: cell-based, Homo sapiens
[2] = Ability to inhibit the growth of human breast line MCF-7
[3] = Cytotoxicity against V79 chinese hamster lung cells was determined via MTT assay after 24 hr; type: cell-based, Cricetulus griseus
[4] = Cytotoxicity against V79 chinese hamster lung cells was determined via MTT assay after 72 hr; type: cell-based, Cricetulus griseus
[5] = […] lethal dose in CF1 mice bearing fluid Ehrlich Ascites tumor at a dose of 75-100 mg/kg; type: ADME, organism-based; details: mouse, in vivo

Sequence MOLYBDOCENE DICHLORIDE has an IC50 [1] of 700 µM, an IC50 [2] of 620 µM and an IC50 [3] of 820 µM. The IC50 [4] was 350 µM and the LD50 [5] was 175 mg/kg.
